In US20240034731A1, “AZA-QUINAZOLINE COMPOUNDS AND METHODS OF USE” (Iambic Therapeutics, Inc., priority 2022, published 2024):
Where two headings read alike, the source gives them in different places.

Tests used:
CDK1/Cyclin B1 = CDK1/Cyclin B1 (Homo sapiens (Human), UniProt P06493); assay: CDK1/Cyclin B1 ADP-Glo Kinase Assay; type: biochemical
Summary of the method: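 ADP-Glo luminescent readout of ADP production, with IC50 fitted by a four-parameter equation to fractional velocity against inhibitor concentration. Reaction started with ATP-containing substrate after a 30-minute enzyme–inhibitor pre-incubation and stopped after 90 minutes, both at room temperature.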

CDK2/Cyclin E1 = CDK2/Cyclin E1 (Homo sapiens (Human), UniProt P24941); assay: CDK2/Cyclin E1 Full length ADP-Glo Kinase Assay; type: biochemical; details: 20 uM ATP, read-out: CDK2/ CyclinE1 IC50
Summary of the method: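 ADP-Glo luminescence (ATP depletion, then ADP-to-light conversion) quantified kinase turnover after a 90 min room-temperature reaction started by ATP/substrate, following 30 min enzyme–inhibitor preincubation. Enzyme: full-length CDK2/cyclin E1; IC50 fitted with a four-parameter equation on fractional velocity.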

CDK4/Cyclin D1 [1] = target: T1, CDK4/Cyclin D1 (Homo sapiens (Human), UniProt P11802); assay: CDK4/Cyclin D1 Mobility Shift Assay (MSA); type: biochemical; details: 0.2 mM ATP, read-out: CDK4/ CyclinD1 MSA IC50
T1 sequence (P11802 whole entry): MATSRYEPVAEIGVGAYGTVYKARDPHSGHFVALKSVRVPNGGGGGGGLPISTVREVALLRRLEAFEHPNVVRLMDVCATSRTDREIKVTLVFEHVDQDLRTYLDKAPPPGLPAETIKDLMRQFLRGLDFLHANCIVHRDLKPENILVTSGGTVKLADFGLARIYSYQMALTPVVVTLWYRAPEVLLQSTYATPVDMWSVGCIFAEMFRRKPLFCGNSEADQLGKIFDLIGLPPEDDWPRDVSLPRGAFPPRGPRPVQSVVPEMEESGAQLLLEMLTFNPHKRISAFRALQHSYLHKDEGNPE
T1 sequence (P24385 whole entry partner): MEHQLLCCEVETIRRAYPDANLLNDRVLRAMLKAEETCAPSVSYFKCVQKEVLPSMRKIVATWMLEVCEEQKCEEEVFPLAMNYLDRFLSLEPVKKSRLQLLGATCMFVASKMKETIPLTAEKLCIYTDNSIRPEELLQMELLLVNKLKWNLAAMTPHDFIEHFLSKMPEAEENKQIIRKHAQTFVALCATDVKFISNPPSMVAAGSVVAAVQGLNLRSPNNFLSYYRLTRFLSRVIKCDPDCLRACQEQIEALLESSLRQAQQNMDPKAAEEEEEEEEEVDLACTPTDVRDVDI
Description: CDK4/Cyclin D1 Mobility Shift Assay (MSA)
The purpose CDK4/Cyclin D1 assay is to evaluate the inhibition (% inhibition and IC50 values) in the presence of small molecule inhibitors by using a fluorescence based microfluidic mobility shift assay. CDK4/Cyclin D1 catalyzes the production of ADP from ATP that accompanies the phosphoryl transfer to the substrate peptide 5-FAM-Dyrktide (5-FAM-[…]) (Perkin Elmer Peptide 34). The mobility shift assay (MSA) electrophoretically separates the fluorescently labelled peptides (substrate and phosphorylated product) following the kinase reaction. Both substrate and product are measured, and the ratio of these values is used to generate % conversion of substrate to product by the LabChip EZ Reader. Typical reaction solutions contained 2% DMSO (+/− inhibitor), 10 mM MgCl2, 1 mM EGTA, 0.05% BSA, 2 mM DTT, 0.2 mM ATP, 0.01% Brig-35, 1.5 uM 5-FAM-Dyrktide, 2.5 nM CDK4/Cyclin D1 in 50 mM HEPES buffer at pH 7.5. The reaction was initiated with the addition of substrate solution, following a 30-minute pre-incubation of enzyme and inhibitor at 22° C. in the reaction mix. The reaction was stopped after 180 minutes by the addition of 75 uL of 500 mM EDTA and measured on a Perkin Elmer EZ reader instrument. IC50 determinations were made from a plot of the fractional velocity as a function of inhibitor concentration fit to the 4 parameters IC50 equation.

CDK6/Cyclin D3 = CDK6/Cyclin D3 (Homo sapiens (Human), UniProt Q00534); assay: CDK6/Cyclin D3 ADP-Glo Kinase Assay; type: biochemical; details: 100 uM ATP, read-out: CDK6/ CyclinD3 IC50
CDK6/Cyclin D3, sequence (Q00534 whole entry): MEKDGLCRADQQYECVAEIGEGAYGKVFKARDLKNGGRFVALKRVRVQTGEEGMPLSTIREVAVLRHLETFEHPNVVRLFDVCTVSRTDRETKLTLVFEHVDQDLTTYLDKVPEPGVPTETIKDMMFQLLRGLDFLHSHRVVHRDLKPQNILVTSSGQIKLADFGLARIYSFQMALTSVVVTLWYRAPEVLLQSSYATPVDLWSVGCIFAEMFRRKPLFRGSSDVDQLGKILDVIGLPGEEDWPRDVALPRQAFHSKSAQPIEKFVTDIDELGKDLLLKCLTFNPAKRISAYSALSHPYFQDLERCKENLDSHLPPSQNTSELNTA
CDK6/Cyclin D3, sequence (P30281 whole entry partner): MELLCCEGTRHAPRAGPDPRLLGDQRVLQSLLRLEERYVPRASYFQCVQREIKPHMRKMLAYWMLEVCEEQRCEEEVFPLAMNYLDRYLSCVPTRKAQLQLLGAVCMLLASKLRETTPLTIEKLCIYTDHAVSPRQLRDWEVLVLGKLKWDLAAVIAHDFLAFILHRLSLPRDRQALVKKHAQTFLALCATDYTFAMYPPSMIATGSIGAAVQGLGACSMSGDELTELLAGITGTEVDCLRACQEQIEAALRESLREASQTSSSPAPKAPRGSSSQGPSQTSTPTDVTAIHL
Summary of the method: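 ADP-Glo luminescence measured ADP produced by CDK6/Cyclin D3 in a 90-min room-temperature reaction started with ATP-containing substrate, after 30-min enzyme–inhibitor pre-incubation. Fractional velocity was plotted against inhibitor concentration and fitted to a four-parameter IC50 model.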

CDK4/Cyclin D1 [2] = target: T1, CDK4/Cyclin D1; assay: CDK4/Cyclin D1 CHEF Assay (AQT0258 peptide); type: biochemical; details: 200 uM ATP, read-out: CDK4/ CyclinD1 AQT IC50
Summary of the method: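 Sox-labelled peptide AQT0258 phosphorylation read as chelation-enhanced fluorescence (ex 360/em 485 nm) with Mg(II). Enzyme preincubated with inhibitor 30 min at 22°C, substrate added, 3 h at 22°C; IC50 from four-parameter fit of fractional velocity versus inhibitor concentration.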

MCF-7 cells = assay: Cell Growth Inhibition, MCF-7 (CellTiterGlo, 6 days); type: cell-based; details: Homo sapiens, MCF7, 144 h, MCF-7, 6-day treatment
Summary of the method: (§1)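 IC50 from four-parameter, variable-slope fits of % growth inhibition, derived from CellTiterGlo 2.0 luminescence relative to control. Compounds, usually 10-10,000 nM in half-log steps, stayed 6 days at 37 °C, 5% CO2 with 500 MCF-7 or OVCAR-3 cells/well in 10% FBS RPMI.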

OVCAR-3 cells = assay: Cell Growth Inhibition, OVCAR-3 (CellTiterGlo, 6 days); type: cell-based; details: Homo sapiens, 144 h, OVCAR-3, 6-day treatment
Summary of the method: as §1

[3] = ADP-Glo, 80 uM ATP, read-out: CDK1 Cyclin B1 IC50

CDK1/Cyclin B1, sequence (P06493 whole entry): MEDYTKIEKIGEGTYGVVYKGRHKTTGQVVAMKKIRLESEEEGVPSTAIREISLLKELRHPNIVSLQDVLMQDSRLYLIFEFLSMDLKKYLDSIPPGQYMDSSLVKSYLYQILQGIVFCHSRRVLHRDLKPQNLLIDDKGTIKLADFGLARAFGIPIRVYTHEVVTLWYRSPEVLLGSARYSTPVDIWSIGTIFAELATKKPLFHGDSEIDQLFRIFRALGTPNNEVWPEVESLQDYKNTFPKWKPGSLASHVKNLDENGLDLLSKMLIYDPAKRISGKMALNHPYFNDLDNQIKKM
CDK1/Cyclin B1, sequence (P14635 whole entry partner): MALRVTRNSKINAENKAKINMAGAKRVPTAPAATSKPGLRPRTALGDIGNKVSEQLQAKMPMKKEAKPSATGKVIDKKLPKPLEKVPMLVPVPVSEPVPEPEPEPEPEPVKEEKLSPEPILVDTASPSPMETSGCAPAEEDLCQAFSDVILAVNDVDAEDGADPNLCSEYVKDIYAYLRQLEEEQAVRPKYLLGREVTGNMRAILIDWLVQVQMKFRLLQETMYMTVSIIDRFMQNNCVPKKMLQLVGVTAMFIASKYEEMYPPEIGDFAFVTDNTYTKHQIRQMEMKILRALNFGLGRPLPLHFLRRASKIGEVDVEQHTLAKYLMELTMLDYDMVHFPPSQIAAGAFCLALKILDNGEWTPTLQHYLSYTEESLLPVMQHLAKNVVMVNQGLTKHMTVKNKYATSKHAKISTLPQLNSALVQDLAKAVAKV

Compound | IC50 (CDK1/Cyclin B1; [3]) [µM] | IC50 (CDK2/Cyclin E1) [µM] | IC50 (CDK4/Cyclin D1 [1]) [µM] | IC50 (CDK6/Cyclin D3) [µM] | IC50 (CDK4/Cyclin D1 [2]) [µM] | IC50 (MCF-7 cells) [µM] | IC50 (OVCAR-3 cells) [µM] | IC50 (CDK1/Cyclin B1) [µM]
CCN1CC2(C1)CN(c1ccc(Nc3ncc4ccnc(N5CCC6(C5)CC6(F)F)c4n3)nc1)C2 (stereo not shown) [Compound 21, 8-(1,1-difluoro-5-azaspiro[2.4]heptan-5-yl)-N-(5-(6-ethyl-2,6-diazaspiro[3.3]heptan-2-yl)pyridin-2-yl)pyrido[3,4-d]pyrimidin-2-amine] | > 2 | 0.2 to 0.5 | < 0.2 | < 0.2 | – | – | – | –
Cc1cc2cnc(NC3CCN(S(=O)(=O)c4cnn(C)c4)CC3)nc2c(N2CC(F)(F)C3(CNC3)C2)n1 [Compound 89, 8-(8,8-difluoro-2,6-diazaspiro[3.4]octan-6-yl)-6-methyl-N-(1-((1-methyl-1H-pyrazol-4-yl)sulfonyl)piperidin-4-yl)pyrido[3,4-d]pyrimidin-2-amine] | < 0.2 | < 0.2 | – | < 0.2 | < 0.2 | 0.5 to 2 | 0.2 to 0.5 | –
Cc1cc2cnc(NC3CCN(S(=O)(=O)c4ccn(C)n4)CC3)nc2c(N2CC(F)(F)C3(CNC3)C2)n1 [Compound 94, 8-(8,8-difluoro-2,6-diazaspiro[3.4]octan-6-yl)-6-methyl-N-(1-((1-methyl-1H-pyrazol-3-yl)sulfonyl)piperidin-4-yl)pyrido[3,4-d]pyrimidin-2-amine] | < 0.2 | < 0.2 | – | < 0.2 | < 0.2 | 0.5 to 2 | 0.2 to 0.5 | –
CCS(=O)(=O)N1CCC(Nc2ncc3cc(C)nc(N4CC(F)(F)C5(CNC5)C4)c3n2)CC1 [Compound 95, 8-(8,8-difluoro-2,6-diazaspiro[3.4]octan-6-yl)-N-(1-(ethylsulfonyl)piperidin-4-yl)-6-methylpyrido[3,4-d]pyrimidin-2-amine] | < 0.2 | < 0.2 | – | < 0.2 | < 0.2 | 0.5 to 2 | 0.5 to 2 | –
Cc1cc2cnc(NC3CCN(S(=O)(=O)c4cnn(C)c4)CC3)nc2c(N2CC(F)(F)C3(CN(C)C3)C2)n1 [Compound 97, 8-(8,8-difluoro-2-methyl-2,6-diazaspiro[3.4]octan-6-yl)-6-methyl-N-(1-((1-methyl-1H-pyrazol-4-yl)sulfonyl)piperidin-4-yl)pyrido[3,4-d]pyrimidin-2-amine] | – | < 0.2 | – | < 0.2 | < 0.2 | 0.5 to 2 | 0.2 to 0.5 | < 0.2
[2H]C([2H])([2H])N1CC2(CN(c3nc(C)cc4cnc(NC5CCN(S(=O)(=O)c6cnn(C)c6)CC5)nc34)CC2(F)F)C1 [Example 11, 8-(8,8-difluoro-2-(methyl-d3)-2,6-diazaspiro[3.4]octan-6-yl)-6-methyl-N-(1-((1-methyl-1H-pyrazol-4-yl)sulfonyl)piperidin-4-yl)pyrido[3,4-d]pyrimidin-2-amine] | – | < 0.2 | – | < 0.2 | < 0.2 | 0.5 to 2 | 0.2 to 0.5 | < 0.2
Cc1cc2cnc(NC3CCN(S(=O)(=O)C4CC4)CC3)nc2c(N2CC3(CCNC3)C2)n1 [Example 25, N-(1-(cyclopropylsulfonyl)piperidin-4-yl)-6-methyl-8-(2,6-diazaspiro[3.4]octan-2-yl)pyrido[3,4-d]pyrimidin-2-amine] | 0.2 to 0.5 | < 0.2 | – | < 0.2 | < 0.2 | 0.2 to 0.5 | 0.2 to 0.5 | –
Cc1cc2cnc(Nc3cc4c(cc3F)CN(S(C)(=O)=O)C4)nc2c(N2CC3(CCNC3)C2)n1 [Example 39, N-(6-fluoro-2-(methylsulfonyl)isoindolin-5-yl)-6-methyl-8-(2,6-diazaspiro [3.4]octan-2-yl)pyrido[3,4-d]pyrimidin-2-amine] | > 2 | < 0.2 | – | > 2 | 0.2 to 0.5 | 0.5 to 2 | > 2 | –
Cc1cc2cnc(NC3CCN(S(=O)(=O)CC4CCCC4)CC3)nc2c(N2CC3(CCNC3)C2)n1 [Example 51, N-(1-((cyclopentylmethyl)sulfonyl)piperidin-4-yl)-6-methyl-8-(2,6-diazaspiro[3.4]octan-2-yl)pyrido[3,4-d]pyrimidin-2-amine] | 0.5 to 2 | < 0.2 | – | 0.2 to 0.5 | < 0.2 | 0.5 to 2 | 0.5 to 2 | –
CS(=O)(=O)N1CCC(Nc2ncc3cc(C4CC4)nc(N4CC(F)(F)C5(CNC5)C4)c3n2)CC1 [Example 60, 6-cyclopropyl-8-(8,8-difluoro-2,6-diazaspiro[3.4]octan-6-yl)-N-(1-(methylsulfonyl)piperidin-4-yl)pyrido[3,4-d]pyrimidin-2-amine] | < 0.2 | < 0.2 | – | < 0.2 | < 0.2 | 0.5 to 2 | > 2 | –
Cc1cc2cnc(NC3CCN(S(=O)(=O)C4CC4)CC3)nc2c(N2CC(F)(F)C3(CNC3)C2)n1 [Example 62, N-(1-(cyclopropylsulfonyl)piperidin-4-yl)-8-(8,8-difluoro-2,6-diazaspiro[3.4]octan-6-yl)-6-methylpyrido[3,4-d]pyrimidin-2-amine] | < 0.2 | < 0.2 | – | < 0.2 | < 0.2 | 0.5 to 2 | 0.5 to 2 | –

Second part, led by results:

IC50 (CDK1/Cyclin B1; [3]) [µM] | IC50 (CDK2/Cyclin E1) [µM] | IC50 (CDK4/Cyclin D1 [1]) [µM] | IC50 (CDK6/Cyclin D3) [µM] | IC50 (CDK4/Cyclin D1 [2]) [µM] | IC50 (MCF-7 cells) [µM] | IC50 (OVCAR-3 cells) [µM] | Compound | IC50 (CDK1/Cyclin B1) [µM]
< 0.2 | < 0.2 | – | < 0.2 | < 0.2 | 0.5 to 2 | 0.5 to 2 | CS(=O)(=O)N1CCC(Nc2ncc3cc(C(F)F)nc(N4CC5(CCNCC5(F)F)C4)c3n2)CC1 [Compound 90, 8-(5,5-difluoro-2,7-diazaspiro[3.5]nonan-2-yl)-6-(difluoromethyl)-N-(1-(methylsulfonyl)piperidin-4-yl)pyrido[3,4-d]pyrimidin-2-amine] | –
< 0.2 | < 0.2 | – | < 0.2 | < 0.2 | 0.5 to 2 | 0.2 to 0.5 | Cc1cc2cnc(NC3CCN(S(C)(=O)=O)CC3)nc2c(N2CC(O)(C(F)F)C2)n1 [Compound 91, 3-(difluoromethyl)-1-(6-methyl-2-((1-(methylsulfonyl)piperidin-4-yl)amino)pyrido[3,4-d]pyrimidin-8-yl)azetidin-3-ol] | –
< 0.2 | < 0.2 | – | < 0.2 | < 0.2 | 0.5 to 2 | 0.5 to 2 | Cc1cc2cnc(NC3CCN(S(C)(=O)=O)CC3)nc2c(N2CC(F)(F)C3(CNC3)C2)n1 [Compound 92, 8-(8,8-difluoro-2,6-diazaspiro[3.4]octan-6-yl)-6-methyl-N-(1-(methylsulfonyl)piperidin-4-yl)pyrido[3,4-d]pyrimidin-2-amine] | –
< 0.2 | < 0.2 | – | < 0.2 | < 0.2 | 0.5 to 2 | 0.5 to 2 | Cc1cc2cnc(NC3CCN(S(C)(=O)=O)CC3)nc2c(C2CC(O)(C(F)F)C2)n1 (stereo not shown) [Compound 93, 1-(difluoromethyl)-3-(6-methyl-2-((1-(methylsulfonyl)piperidin-4-yl)amino)pyrido[3,4-d]pyrimidin-8-yl)cyclobutan-1-ol] | –
< 0.2 | < 0.2 | – | < 0.2 | < 0.2 | 0.2 to 0.5 | 0.5 to 2 | Cc1cc2cnc(NC3CCN(S(C)(=O)=O)CC3)nc2c(N2CC(F)(F)C3(CN(C)C3)C2)n1 [Compound 96, 8-(8,8-difluoro-2-methyl-2,6-diazaspiro[3.4]octan-6-yl)-6-methyl-N-(1-(methylsulfonyl)piperidin-4-yl)pyrido[3,4-d]pyrimidin-2-amine] | –
